Earlier results, collected in patent US20100247552A1, “PAK MODULATORS” (MASSACHUSETTS INSTITUTE OF TECHNOLOGY, priority 2006, published 2010).

Columns and labels:
PAK4 [1] = molecular target: T1, PAK4 (Homo sapiens, UniProt O96013)
PAK5 [2] = molecular target: T2, PAK5 (Homo sapiens, UniProt Q9P286)
PAK6 [3] = molecular target: T3, PAK6 (Homo sapiens, UniProt Q9NQU5)
PAK5 [4] = molecular target: T2, PAK5; settings: 10 μM compound
PAK4 [5] = molecular target: T1, PAK4; settings: 10 μM compound
PAK6 [6] = molecular target: T3, PAK6; settings: 10 μM compound
[7] = tested on: human cancer cell migration; settings: 40 μM; interferes with formation of active Cdc42/Rac1 and PAK complex
[8] = solvents
PAK = settings: probably competitive inhibition of ATP binding; units printed within the value (nM and μM); read-out: IC50 for inhibition of PAK kinase activity

T3 sequence (Q9NQU5 whole entry): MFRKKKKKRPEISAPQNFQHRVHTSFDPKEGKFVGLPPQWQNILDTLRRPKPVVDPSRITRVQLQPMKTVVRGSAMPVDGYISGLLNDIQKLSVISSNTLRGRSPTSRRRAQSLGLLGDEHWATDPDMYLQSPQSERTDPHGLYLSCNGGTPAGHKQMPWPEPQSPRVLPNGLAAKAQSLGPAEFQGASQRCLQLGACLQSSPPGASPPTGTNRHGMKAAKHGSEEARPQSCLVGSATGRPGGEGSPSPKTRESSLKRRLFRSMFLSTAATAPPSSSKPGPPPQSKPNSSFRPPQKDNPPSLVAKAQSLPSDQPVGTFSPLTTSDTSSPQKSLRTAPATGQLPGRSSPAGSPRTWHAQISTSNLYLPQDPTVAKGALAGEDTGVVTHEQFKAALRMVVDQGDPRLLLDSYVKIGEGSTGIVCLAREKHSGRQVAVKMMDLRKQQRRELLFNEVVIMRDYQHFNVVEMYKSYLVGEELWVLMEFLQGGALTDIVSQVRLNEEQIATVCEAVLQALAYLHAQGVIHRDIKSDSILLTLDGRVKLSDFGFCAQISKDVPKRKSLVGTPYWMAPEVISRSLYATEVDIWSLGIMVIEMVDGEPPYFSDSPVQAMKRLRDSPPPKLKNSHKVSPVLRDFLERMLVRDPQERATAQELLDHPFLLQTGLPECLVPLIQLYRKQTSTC
T2 sequence (Q9P286 whole entry): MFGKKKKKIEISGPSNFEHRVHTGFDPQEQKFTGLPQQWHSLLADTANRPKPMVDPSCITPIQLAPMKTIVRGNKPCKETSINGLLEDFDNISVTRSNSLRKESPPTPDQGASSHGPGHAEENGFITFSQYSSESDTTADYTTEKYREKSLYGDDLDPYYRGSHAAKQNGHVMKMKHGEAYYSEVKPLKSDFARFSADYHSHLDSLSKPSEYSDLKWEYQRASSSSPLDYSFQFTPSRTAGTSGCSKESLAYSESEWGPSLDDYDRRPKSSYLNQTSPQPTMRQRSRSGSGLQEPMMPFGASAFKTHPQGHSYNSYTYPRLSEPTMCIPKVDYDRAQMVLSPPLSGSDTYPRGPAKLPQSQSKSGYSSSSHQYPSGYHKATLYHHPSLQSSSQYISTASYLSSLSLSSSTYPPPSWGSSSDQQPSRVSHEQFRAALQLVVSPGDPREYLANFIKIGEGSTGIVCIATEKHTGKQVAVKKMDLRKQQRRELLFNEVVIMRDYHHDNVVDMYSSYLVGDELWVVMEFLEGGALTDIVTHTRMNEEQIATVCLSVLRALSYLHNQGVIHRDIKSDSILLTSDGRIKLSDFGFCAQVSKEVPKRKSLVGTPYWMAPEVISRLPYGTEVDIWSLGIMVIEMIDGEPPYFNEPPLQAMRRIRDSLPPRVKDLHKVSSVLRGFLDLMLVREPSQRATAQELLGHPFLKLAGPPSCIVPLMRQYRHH
T1 sequence (O96013 291-591 limits assumed): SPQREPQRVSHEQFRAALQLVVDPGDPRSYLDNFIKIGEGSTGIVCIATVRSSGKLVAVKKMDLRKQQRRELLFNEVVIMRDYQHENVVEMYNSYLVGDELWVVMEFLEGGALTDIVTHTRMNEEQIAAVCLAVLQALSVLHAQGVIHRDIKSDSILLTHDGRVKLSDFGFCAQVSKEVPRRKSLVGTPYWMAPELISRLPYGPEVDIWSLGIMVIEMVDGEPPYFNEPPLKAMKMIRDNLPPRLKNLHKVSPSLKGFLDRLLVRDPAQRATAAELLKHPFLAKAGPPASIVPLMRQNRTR

SMILES	Tm Shift PAK4 (PAK4 [1]) [°C]	Tm Shift PAK5 (PAK5 [2]) [°C]	Tm Shift PAK6 (PAK6 [3]) [°C]	% Activity at 10 μM PAK5 (PAK5 [4]) [%]	% Activity at 10 μM PAK4 (PAK4 [5]) [%]	% Activity at 10 μM PAK6 (PAK6 [6]) [%]	Effect on human cancer cell migration [7]	Solubility [8]	IC50 (PAK) [nM]
Nc1nc(Nc2ccc(S(N)(=O)=O)cc2)nn1C(=S)Nc1c(F)cccc1F [Cdk 1/2 Inhibitor III]	6.5 ± 0.2	5.6 ± 0.3	5.6 ± 0.8	7.0	62	18			
CCn1cnc2c(Nc3cccc(Cl)c3)nc(NC3CCCCC3N)nc21 (stereo not drawn) [Cdkl Inhibitor]	7.0 ± 1.5	7.1 ± 0.3	7.0 ± 0.3	12	56	23			
Cc1cc(O)c2c(c1)C(=O)c1cc(O)cc(O)c1C2=O [Emodin, 1,3,8-Tri-hydroxy-6-methyl-anthra-quinone]							inhibits human cancer cell migration	soluble in DMSO, ethanol, or 1 N dilute aqueous ammonia	
C[C@]12OC(C[C@]1(O)C(=O)O)n1c3ccccc3c3c4c(c5c6ccccc6n2c5c31)CNC4=O [K252a]	4.5 ± 0.3	5.9 ± 0.3	8.6 ± 1.0	22	16	16			
NCC(=O)Nc1ccc(-n2nc(C(F)(F)F)cc2-c2ccc3c(ccc4ccccc43)c2)cc1 [OSU-03012, 2-amino-N-{4-[5-(2-phenanthrenyl)-3-(trifluoromethyl)-1H-pyrazol-1-yl]-phenyl}acetamide]								soluble in organic solvents such as DMSO, ethanol, and DMF	500 to 1000
CCN(CC)CCNC(=O)c1c(C)[nH]c(/C=C2\C(=O)Nc3ccc(Cl)cc32)c1C [SU11652]	6.4 ± 1.2	5.3 ± 0.2	5.3 ± 0.3	43	34	75			
CN[C@@H]1C[C@H]2O[C@@](C)([C@@H]1OC)n1c3ccccc3c3c4c(c5c6ccccc6n2c5c31)C(=O)NC4 [Staurosporine]				0		0			
